Reference: patent publication US8853424B2 (Japan Science and Technology Agency, priority 2008, dated 2014)

What was measured:
[1] = tested on: transglutaminase (TGase); experiment: Measurement of TG (TGase inhibitory activity, monodansyl cadaverine / N,N-dimethylcasein fluorescence, FDSS 3000); assay type: biochemical
Method: For example, the method described in the Example can be performed.
The compound of the present invention (10 mM, 1 μL) was taken in a 96-well plate (Nunc, 96 Well Black Plate with Clear Bottom), an enzyme reaction solution (100 mM HEPES-NaOH, pH 7.5, 1 mM CaCl2, 20 μM monodansyl cadaverine, 0.05 mg/mL N,N-dimethylcasein, 5 μg/mL TGase) (0.1 ml) was added and the mixture was sufficiently mixed without making foams. The mixture was set on a fluorescence drug screening system FDSS 3000 (Hamamatsu Photonics K.K.), and changes in the fluorescence wavelength per unit time at 340 nm were measured, based on which the TGase inhibitory activity of the compound of the present invention was calculated. As a control, change in the fluorescence when 1 μL of DMSO (dimethyl sulfoxide) was added instead of the compound of the present invention was taken as 100, and TG50 was when the activity decreased to half due to the compound of the present invention.

[2] = tested on: Truncated N-terminal huntington 150 Q-EGFP-Neuron 2a cells; experiment: Measurement of x-Fold (polyglutamine aggregation inhibitory activity); assay type: cell-based
Method: In the present invention, the polyglutamine aggregation inhibitory activity (x-Fold) can be measured, for example, by the method described in the Example.
The number of the aggregated cells, and the total number of cells were counted by Array Scan V T1 (manufactured by Cellomics, Pittuburg, USA), and the ratio of the aggregated cells to the total number of cells was determined (x-Fold). […]

[3] = TGase activity with compound (10 mM, 1 μL in 0.1 ml enzyme reaction solution), DMSO control taken as 100
[4] = TGase inhibitory activity value, Table 1
[5] = polyglutamine aggregation inhibitory activity, Table 1
[6] = ratio of aggregated cells to total number of cells, compound 20 μM, 20 hr, almost 1 without compound, smaller = stronger inhibition
[7] = TGase inhibitory activity measurement, unit not given
[8] = polyglutamine aggregation, Truncated N-terminal huntington 150 Q-EGFP-Neuron 2a cells

Structure (SMILES)	TGase activity remaining (% of DMSO control = 100) [1, 3]	TGase activity remaining (% of DMSO control = 100) [1, 4]	TGase activity remaining (% of DMSO control = 100) [1, 7]	TGase activity remaining (% of DMSO control = 100) ([1]; TGase inhibitory activity value, Table 1, listed as 5009)	x-Fold [2, 5]	x-Fold [2, 6]	x-Fold [2, 8]	x-Fold ([2]; polyglutamine aggregation inhibitory activity, Table 1, listed as 5009)
NCCSB(c1ccc(Cl)cc1F)c1ccc(Cl)cc1F [Example 1, 2-aminoethylthio bis(4-chloro-2-fluorophenyl)borane]	28	28	–	–	0.95	0.95	–	–
OB(c1ccc(F)c(Cl)c1)c1ccc(F)c(Cl)c1 [Example 76, bis(3-chloro-4-fluorophenyl)borinic acid]	117	117	–	–	0.78	0.78	–	–
CN(C)CCOB(c1cc(F)cc(F)c1)c1cc(F)cc(F)c1 [Example 92, dimethylaminoethyl bis(3,5-difluorophenyl)borinate]	106	106	–	–	1.00	1.00	–	–
COc1ccc(B(OCCN(C)C)c2ccc(COCc3ccc(B(OCCN(C)C)c4ccc(OC)cc4)cc3)cc2)cc1 [Example 414, bis(4,4′-(p-methoxyphenyl-N,N-dimethylaminoethoxyboryl)benzyl)ether]	128	–	128	–	–	0.90	0.90	–
OB(c1cc(F)cc(Cl)c1)c1cc(F)cc(Cl)c1 [Example 97, bis(3-chloro-5-fluorophenyl)borinic acid]	122	122	–	–	0.72	0.72	–	–
OB(c1ccc(Cl)cc1F)c1ccc(Cl)cc1F [Example 79, bis(4-chloro-2-fluorophenyl)borinic acid]	97	97	–	–	0.88	0.88	–	–
NCCOB(c1ccc(COCc2ccc(B(OCCN)c3ccc(F)c(F)c3)cc2)cc1)c1ccc(F)c(F)c1 [Example 416, bis(4,4′-(3,4-difluorophenyl-aminoethoxyboryl)benzyl)ether]	114	–	114	–	–	0.92	0.92	–
N#Cc1ccc(B(O)c2ccc(C#N)cc2)cc1 [Example 102, bis(4-cyanophenyl)borinic acid]	72	–	–	72	–	1.10	–	1.10
OB(c1ccccc1)c1ccc(-c2ccc(B(O)c3ccccc3)cc2)cc1 [Example 140, 4,4′-phenylhydroxyboryl 4-biphenyl]	−72	−72	–	–	0.85	0.85	–	–
OB(c1ccc(COCCOc2ccc(B(O)c3cccs3)cc2)cc1)c1cccs1 [Example 296, (4-(2-thiophenehydroxyboryl)phenoxyethyl)(4′-(2-thiophenehydroxyboryl)benzyl)ether]	97	97	–	–	0.74	0.74	–	–
Cc1cc(B(OCCN)c2ccc(COCc3ccc(B(OCCN)c4ccc(Cl)c(C)c4)cc3)cc2)ccc1Cl [Example 339]	115	115	–	–	0.91	0.91	–	–

Now from value to compound, other results behind:

TGase activity remaining (% of DMSO control = 100) [1, 3]	TGase activity remaining (% of DMSO control = 100) [1, 4]	TGase activity remaining (% of DMSO control = 100) [1, 7]	TGase activity remaining (% of DMSO control = 100) ([1]; TGase inhibitory activity value, Table 1, listed as 5009)	Structure (SMILES)	x-Fold [2, 5]	x-Fold [2, 6]	x-Fold [2, 8]	x-Fold ([2]; polyglutamine aggregation inhibitory activity, Table 1, listed as 5009)
106	106	–	–	CSCCC(N)C(=O)OB(c1ccccc1)c1ccccc1 (stereo not shown) [Example 194, diphenyl(methionate-O,N)borane]	1.03	1.03	–	–
102	102	–	–	CCCCB(CCCC)OC(=O)C(C)N (stereo not shown) [Example 159, dibutyl(alanine-O,N)borane]	0.96	0.96	–	–
47	47	–	–	NC(=O)CCC(N)C(=O)OB(c1ccsc1)c1ccc2sc3ccc(B(OC(=O)C(N)CCC(N)=O)c4ccsc4)cc3c2c1 (stereo not shown) [Example 304, 2,8-di(3-thiophenylglutamine-O,N boryl)dibenzothiophene]	0.90	0.90	–	–
91	91	–	–	Cc1cc(B(OCCN)c2ccccc2)ccc1B(OCCN)c1ccccc1 [Example 146, 1,4-bis(phenyl-2-aminoethoxyboryl) 2-methylbenzene]	1.02	1.02	–	–
106	–	106	–	CCCCB(CCCC)OC(=O)C(N)Cc1ccccc1 (stereo not shown) [Example 493, dibutyl(phenylalanine-O,N)borane]	–	1.03	1.03	–
89	89	–	–	O=C(OB(c1ccc(C(F)(F)F)cc1)c1ccc(C(F)(F)F)cc1)c1ccccn1 [Example 284, di(4-trifluoromethylphenyl) (picolinate-O,N)borane]	1.03	1.03	–	–
44	44	–	–	Cc1ccc(B(OCCN)c2ccc(-c3ccc(B(OCCN)c4ccc(C)cc4)cc3)cc2)cc1 [Example 364, 4,4′-(4-methylphenylaminoethoxyboryl)diphenyl]	0.82	0.82	–	–
101	101	–	–	OB(c1ccc(F)cc1)c1cccc(COCc2cccc(B(O)c3ccc(F)cc3)c2)c1 [Example 336, bis(3-(4-fluorophenylhydroxyboryl)benzyl)ether]	1.02	1.02	–	–
97	97	–	–	CCCCC(N)C(=O)OB(c1ccccc1)c1ccccc1 (stereo not shown) [Example 226, diphenyl(2-aminohexanecarboxylate-O,N)borane]	0.94	0.94	–	–
112	112	–	–	OB(CCCCB(O)c1ccccc1)c1ccccc1 [Example 113, 1,4-bis(hydroxyphenylboryl)butane]	0.99	0.99	–	–
80	–	80	–	c1ccc(B(OCCN2CCCCC2)c2ccc(COCc3ccc(B(OCCN4CCCCC4)c4ccccc4)cc3)cc2)cc1 [Example 459, bis(4,4′-(phenyl-1-piperidylethoxyboryl)benzyl)ether]	–	1.03	1.03	–
81	–	–	–	COc1ccc(C(OB(c2ccccc2)c2ccc(COCc3ccc(B(OC(c4ccc(OC)cc4)c4ccccn4)c4ccccc4)cc3)cc2)c2ccccn2)cc1 (stereo not shown) [Example 126, bis(phenyl 2-pyridyl-4-methoxyphenylmethoxyborylbenzyl)ether]	–	1.04	–	–
96	96	–	–	OB(c1ccccc1)c1ccc2sc3ccc(B(O)c4ccccc4)cc3c2c1 [Example 387, 2,8-di(phenylhydroxyboryl)dibenzothiophene]	0.73	0.73	–	–
